Data set [1] relates to Human dermal fibroblasts. The data set can be described thus: Cell adhesion, proliferation and viability on coated substrates (PrestoBlue, Vybrant MTT, CyQUANT). In kind it is cell-based. The following applies: serum-free media, days 1, 4 and 8, 50 μL peptide 100 μM or protein 500 μg/mL. The method, then: Human dermal fibroblasts (Invitrogen, UK) were maintained in Medium 106 supplemented with low serum growth supplement (2% v/v) and antibiotics (10 μg/mL gentamicin; 0.25 μg/mL amphotericin B) in […] culture flasks. The cells were incubated at 37° C., 5% CO2 and 95% air humidity. At 70-80% confluency cells were washed with PBS to remove the unattached cells and then adhered cells were trypsinised (trypsin/EDTA 0.025:0.01%) followed by trypsin neutraliser (all from Invitrogen, UK). The harvested cells (of passages 3 to 5) were seeded for subsequent cellular analysis.
Cells were seeded at a density of 4×10^3 in serum-free media for cell viability and proliferation assays on substrates (sterile 96 well plates) coated with 50 μL of peptide (100 μM) or protein (500 μg/mL). For cytoskeletal visualisation Nunc LabTek chambered cover glass slides were used as substrates.
Cell proliferation rates and viability were determined by PrestoBlue®, Vybrant® MTT and CyQUANT® assays on day 1, 4 and 8 (all from Life Technologies, UK).
PrestoBlue® reagent is supplied as a 10× solution and added to each well by diluting (1×) in the serum-free culture medium. The cells were incubated for 30 minutes at 37° C. in 200 μL of the reagent. The fluorescence of each well was measured with a microplate reader (BMG Labtech, Germany), with 544 nm excitation and 590 nm emission filters. Standard calibration curves were generated by plotting measured fluorescence values versus cell numbers. […]
Vybrant® MTT assay: For the colourimetric 3-(4, 5-dimethylthiazole-2-yl)-2, 5-diphenyl tetrazolium bromide (MTT) cell proliferation assay, the cell medium was removed from each well at the set time points and washed with PBS followed by the addition of MTT solution (10 μL, 5 mg/mL in PBS) and serum-free fresh media (100 μL). […] The absorbance intensity was measured by a microplate reader at 540 nm with a reference wavelength at 640 nm. Standard calibration curves were generated by plotting measured absorbance values versus cell numbers. […]

A further data set relates to E. coli. The data set can be described thus: Bacterial adhesion / biofilm formation on coated substrates (Live/Dead stain, PrestoBlue). In kind it is cell-based. The following applies: 16-hour incubations; E. coli and B. subtilis (FIGS. 12b, 13b, 13c, 14). The procedure: Bacterial inocula (E. coli and B. subtilis) were prepared in Mueller Hinton broth at A600 of 0.6, then diluted to 1:100 in the pre-warmed medium, and 50 μL of this dilution was added to each well of the coated Nunc LabTek chambered cover glass slides. Formed biofilms were analysed after 16-hour incubations using a Live/Dead BacLight bacterial viability stain kit (Molecular Probes, UK), and were visualised by a confocal laser scanning microscope (CLSM) (FV-1000, Olympus). Bacterial viability was quantitatively probed by using PrestoBlue® reagent, as used for the cell viability and proliferation assay. E. coli was seeded at the same density as above in sterile bare and coated 96-well plates. After 16 hours incubation at 37° C. (or 30° C. for B. subtilis), the biofilm formed on each substrate was carefully washed with 10 mM Tris-HCl buffer, pH 7, to remove bacteria remaining in suspension. Two hundred microliters of PrestoBlue® reagent diluted in Mueller Hinton broth were added to each well and incubated for 30 minutes at 37° C. The fluorescence of each well was measured using a microplate reader with 544 nm excitation and 590 nm emission filters.
FIG. 13b and FIG. 13c are fluorescence micrographs and total viable cell counts respectively determined by PrestoBlue® of E. coli after 16-hour incubations on different substrates. […]

The subject of data set [2] is Human dermal fibroblasts. The data set can be described thus: Impedance measurements (xCELLigence) of cells on coated electrodes. The data set is classed as cell-based. The following applies: serum-depleted medium. The method, then: Comparative impedance measurements using cell-electrode interfaces, which allow evaluating changes in effective impedance (resistance) to applied alternating current, provided further support for different cell proliferation patterns that were measured continuously in real time. Typically, cell attachments to electrode surfaces give impedance increases, whereas changes in cell morphology (cell rounding-up and detachment) cause impedance drops. Resistance traces that can correspond to different events including changes in cellular morphology, patterning and growth rates were recorded as a function of time, with cells seeded in a serum-depleted medium to avoid interferences by serum, which can modulate same signaling pathways for cell adhesion.
Impedance measurements were performed using an xCELLigence system according to the manufacturer's protocols (Roche, UK; ACEA Biosciences, USA). Each electrode array comprises 16 wells, each of which was first coated with assembled SaNet and protein solutions and background measurements were carried out prior to cell seeding. […] The electrical impedance of each well was automatically recorded every 5 min for the first 24 hours and then every 30 min till the end, and were normalised and expressed using the proprietary software as normalised cell index. Bacterial adhesions were measured every 5 min for over 15 hours. […]

Another data set deals with S. aureus (ATCC 6538). In kind it is cell-based. Conditions: ATCC 6538, 24 h.
Data set [3] relates to P. aeroginosa (ATCC 27853). The data set is classed as cell-based, P. aeruginosa. The following applies: ATCC 27853, 24 h. The procedure: (§1) Minimum inhibitory concentrations (MIC) were determined by broth microdilution on P. aeruginosa ATCC 27853, E. coli K12, S. aureus ATCC 25723, M. luteus NCIMB 13267 and B. subtilis ATCC 6633 according to the Clinical and Laboratory Standards Institute. Typically, 100 μl of 0.5-1×10^6 CFU per ml of each bacterium in Mueller Hinton broth was incubated in 96 well plates with […] of serial two-fold dilutions of the peptides (final concentrations, 100-0 mM) at 37° C. (or 30° C. for B. subtilis and M. luteus) on a 3D orbital shaker. The absorbance was measured after peptide addition at 600 nm using a Victor 2 plate reader (Perkin Elmer). Minimum inhibitory concentrations (MICs) were defined as the lowest peptide concentration showing growth inhibition after 24 hours at 37° C. All tests were done in triplicate.

Data set [4] can be described thus: Haemolysis of human erythrocytes. In kind it is cell-based. Conditions: 10% (v/v) suspension, pH 7.2; 50% lysis of human erythrocytes, 1 hour, room temperature; read-out: LC50. The method, then: (§2) Haemolysis was determined by incubating 10% (v/v) suspension of human erythrocytes with peptides. Erythrocytes were rinsed 4 times in 10 mM PBS, pH 7.2, by repeated centrifugation and re-suspension (3 min, 3000×g). Erythrocytes were incubated at room temperature for 1 hour in either deionised water (fully haemolysed control), PBS or with peptide in PBS. After centrifugation at 10 000 g for 5 min, the supernatant was separated from the pellet and the absorbance measured at 550 nm. Absorbance of the suspension treated with deionised water defined complete haemolysis. The values given in Table 2 correspond to concentrations needed to kill a half of the sample population (50% lysis of human erythrocytes) and are expressed as median lethal concentrations—LC50. All tests were done in triplicate.

The subject of the next data set is Human erythrocytes. The data set can be described thus: Haemolysis of human erythrocytes. In kind it is cell-based. The following applies: in words. The procedure: as §2
A further data set deals with M. luteus. The data set is classed as cell-based. Conditions: 24 h. The method, then: as §1
A further data set relates to B. subtilis (ATCC 6633). In kind it is cell-based. Conditions: ATCC 6633, 24 h. The procedure: as §1
The next data set relates to E. coli (K12). In kind it is cell-based. The following applies: K12, 24 h. The procedure: as §1

Consider 4 substances from US10265403B2, “Cyclic peptide” (priority 2013, dated 2019).

Where no end group is shown, it is not given here. A value given as a limit tells only on which side of the number the result lay.

As to “KIAALKQKIAALKYEIAALE-am (KIAALKQKIAALKYEIAALE-NH2) [D2, individual linear second domain, negative non-assembling peptide control]”, in the data set with Human dermal fibroblasts [1], the “cell adhesion and proliferation (total cells / total viable cells)” value is “only negligible cellular responses”.

Take collagen: the “resistance against bacterial adhesion / biofilm formation” value in the data set on E. coli was “did not resist biofilm formation”. The “cell adhesion and proliferation (total cells / total viable cells)” value in the data set on Human dermal fibroblasts [1] was “comparable values”. Moreover, in the data set on Human dermal fibroblasts [2], the “normalised impedance after second medium inoculation” value is on record as “a gradually ascending phase in impedance”.

As usually defined, the MIC is the least concentration at which growth counts as inhibited. Higher therefore signals a less susceptible organism. On to “cyclo(AALEGGGEIAALEQEIAALEYKIAALKGGGKIAALKQKIAALKQEI) [SaNet]”, for which the MIC is greater than 100 µM in the data set with S. aureus (ATCC 6538); greater than 100 µM in [3]; less than 50 µM against M. luteus; 50 µM with B. subtilis (ATCC 6633); 100 µM with E. coli (K12). Also, in [4], the CC50 at 1 hour was greater than 600 µM. Also, in the data set on Human erythrocytes, the haemolytic activity result is reported as “negligible”.

With fibronectin, the “resistance against bacterial adhesion / biofilm formation” value in the data set on E. coli is listed as “did not resist biofilm formation”. For the same substance, the “cell adhesion and proliferation (total cells / total viable cells)” value in the data set on Human dermal fibroblasts [1] was “comparable values”. Also, the “normalised impedance after second medium inoculation” value with Human dermal fibroblasts [2] was “steady decays in resistance curves”.
